Test results: ChEMBL document CHEMBL1147436, “Synthesis of N,N'-disubstituted 3-aminobenzo[c] and [d]azepin-2-ones as potent and specific farnesyl transferase inhibitors” (Bioorg Med Chem Lett, 2004)

Tests used:
[1] = target: T1, Protein farnesyltransferase (Homo sapiens, UniProt P49354+P49356); assay: Inhibition of farnesyltransferase; assay type: protein-complex assay
[2] = Inhibitory activity against v-H-Ras gene transfected cell line; assay type: functional
[3] = target: T1, Protein farnesyltransferase; assay: Inhibition of Farnesyltransferase; assay type: protein-complex assay
[4] = Inhibition of geranylgeranyl transferase
[5] = system: Mus musculus; assay: Percent control tumor size in mouse xenograft assay (rat H-ras transformed fibroblasts) at 100 mg/kg peroral dose; assay type: functional; conditions: route oral
[6] = system: Mus musculus; assay: Percent control tumor size in mouse xenograft assay (rat H-ras transformed fibroblasts) at 200 mg/kg peroral dose; assay type: functional; conditions: route oral

Row | IC50 [1] [nM] | IC50 [2] [nM] | IC50 [3] [nM] | IC50 [4] [nM] | SMILES | Control [5] [%] | Control [6] [%]
1 | 18 | 47 | – | – | N#Cc1ccc(Cn2cncc2CNC2Cc3ccccc3CN(Cc3cc(F)cc(F)c3F)C2=O)cc1 (centres undefined) | – | –
2 | 54 | 96 | – | – | Cc1ccccc1CN1CCc2ccccc2C(NCc2cncn2Cc2ccc(C#N)cc2)C1=O (centres undefined) | – | –
3 | – | 19 | 32 | – | N#Cc1ccc(Cn2cncc2CNC2C(=O)N(c3cc(Cl)cc(Cl)c3)CCc3ccccc32)cc1 (centres undefined) | – | –
4 | 78 | 67 | – | – | N#Cc1ccc(Cn2cncc2CNC2C(=O)N(Cc3cccc(F)c3)CCc3ccccc32)cc1 (centres undefined) | – | –
5 | 8 | 10 | – | – | N#Cc1ccc(Cn2cncc2CN[C@H]2CCCCN(Cc3ccccc3)C2=O)cc1 | – | –
6 | 54 | 95 | – | – | N#Cc1ccc(Cn2cncc2CNC2C(=O)N(c3ccccc3)CCc3ccccc32)cc1 (centres undefined) | – | –
7 | 26 | 379 | – | – | N#Cc1ccc(Cn2cncc2CNC2C(=O)N(Cc3cc(F)cc(F)c3)CCc3ccccc32)cc1 (centres undefined) | – | –
8 | 3 | 4 | – | 7100 | Cc1ccccc1CN1Cc2ccccc2CC(NCc2cncn2Cc2ccc(C#N)cc2)C1=O (centres undefined) | 76 | 57
9 | 1 | 7 | – | 25000 | N#Cc1ccc(Cn2cncc2CN[C@H]2Cc3ccccc3CN(c3cccc(Cl)c3)C2=O)cc1 | 60 | 35
10 | 19 | 16 | – | – | N#Cc1ccc(Cn2cncc2CN[C@H]2Cc3ccccc3CN(c3ccccc3)C2=O)cc1 | – | –
11 | 142 | 141 | – | – | N#Cc1ccc(Cn2cncc2CNC2Cc3ccccc3CN(Cc3ccc(Cl)cc3Cl)C2=O)cc1 (centres undefined) | – | –
12 | 10 | 40 | – | – | N#Cc1ccc(Cn2cncc2CNC2Cc3ccccc3CN(c3cc(F)cc(F)c3)C2=O)cc1 (centres undefined) | – | –
13 | 47 | 26 | – | – | N#Cc1ccc(Cn2cncc2CNC2Cc3ccccc3CN(CC3CCCCC3)C2=O)cc1 (centres undefined) | – | –
14 | 55 | 115 | – | – | N#Cc1ccc(Cn2cncc2CNC2Cc3ccccc3CN(Cc3ccc(F)cc3F)C2=O)cc1 (centres undefined) | – | –
15 | 22 | 60 | – | – | N#Cc1ccc(Cn2cncc2CNC2C(=O)N(Cc3cccc(Br)c3)CCc3ccccc32)cc1 (centres undefined) | – | –
16 | 62 | 86 | – | – | N#Cc1ccc(Cn2cncc2CNC2C(=O)N(c3cc(F)cc(F)c3)CCc3ccccc32)cc1 (centres undefined) | – | –
17 | 15 | 7 | – | – | N#Cc1ccc(Cn2cncc2CNC2Cc3ccccc3CN(c3cc(Cl)cc(Cl)c3)C2=O)cc1 (centres undefined) | – | –
18 | 23 | 92 | – | – | N#Cc1ccc(Cn2cncc2CNC2C(=O)N(Cc3ccccc3Cl)CCc3ccccc32)cc1 (centres undefined) | – | –
19 | 8 | 16 | – | – | N#Cc1ccc(Cn2cncc2CNC2Cc3ccccc3CN(Cc3cc(F)cc(F)c3)C2=O)cc1 (centres undefined) | – | –
20 | 17 | 6 | – | – | N#Cc1ccc(Cn2cncc2CNC2Cc3ccccc3CN(Cc3ccccc3)C2=O)cc1 (centres undefined) | – | –
21 | 6 | 4 | – | – | N#Cc1ccc(Cn2cncc2CNC2Cc3ccccc3CN(Cc3cccc(Cl)c3)C2=O)cc1 (centres undefined) | – | –
22 | 10 | 6 | – | – | N#Cc1ccc(Cn2cncc2CNC2Cc3ccccc3CN(Cc3ccccc3Cl)C2=O)cc1 (centres undefined) | – | –
23 | 23 | 183 | – | – | N#Cc1ccc(Cn2cncc2CNC2C(=O)N(Cc3cccc(Cl)c3)CCc3ccccc32)cc1 (centres undefined) | – | –
24 | 26 | 36 | – | – | N#Cc1ccc(Cn2cncc2CNC2Cc3ccccc3CN(c3ccccc3)C2=O)cc1 (racemic) | – | –
25 | 4 | 16 | – | – | N#Cc1ccc(Cn2cncc2CNC2Cc3ccccc3CN(c3cccc(Cl)c3)C2=O)cc1 (racemic) | – | –
26 | 13 | 46 | – | – | N#Cc1ccc(Cn2cncc2CNC2Cc3ccccc3CN(c3cccc([N+](=O)[O-])c3)C2=O)cc1 (racemic) | – | –
27 | 9 | 39 | – | – | N#Cc1ccc(Cn2cncc2CNC2Cc3ccccc3CN(c3cccc(F)c3)C2=O)cc1 (racemic) | – | –
28 | 6 | 15 | – | – | COc1cccc(N2Cc3ccccc3CC(NCc3cncn3Cc3ccc(C#N)cc3)C2=O)c1 (racemic) | – | –
29 | 15 | 5 | – | – | N#Cc1ccc(Cn2cncc2CNC2Cc3ccccc3CN(c3cccc(Br)c3)C2=O)cc1 (racemic) | – | –
30 | 19 | 39 | – | 7700 | N#Cc1ccc(Cn2cncc2CNC2C(=O)N(c3cccc(Cl)c3)CCc3ccccc32)cc1 (racemic) | 70 | 43
